Laboratory results: patent publication US8501770B2 (ArQule, Inc., priority 2009, dated 2013)

These compounds were tested against Full-length inactive AKT1 (Homo sapiens, UniProt P31749) (assay: Inactive Akt Alpha Screen Assay). Conditions: values not marked with "*"; read-out: Akt1 IC50, (AlphaScreen).
Format: biochemical
In short: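 AlphaScreen read-out (excitation 640 nm, emission 570 nm) after 90 min incubation at room temperature in the dark. Signal comes from crosstide phosphorylation by AKT1, which was activated by added PDK1, MAPKAPK2, ATP and lipid vesicles, captured via phospho-AKT substrate antibody and streptavidin beads.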

Full-length inactive AKT1, sequence (P31749 whole entry): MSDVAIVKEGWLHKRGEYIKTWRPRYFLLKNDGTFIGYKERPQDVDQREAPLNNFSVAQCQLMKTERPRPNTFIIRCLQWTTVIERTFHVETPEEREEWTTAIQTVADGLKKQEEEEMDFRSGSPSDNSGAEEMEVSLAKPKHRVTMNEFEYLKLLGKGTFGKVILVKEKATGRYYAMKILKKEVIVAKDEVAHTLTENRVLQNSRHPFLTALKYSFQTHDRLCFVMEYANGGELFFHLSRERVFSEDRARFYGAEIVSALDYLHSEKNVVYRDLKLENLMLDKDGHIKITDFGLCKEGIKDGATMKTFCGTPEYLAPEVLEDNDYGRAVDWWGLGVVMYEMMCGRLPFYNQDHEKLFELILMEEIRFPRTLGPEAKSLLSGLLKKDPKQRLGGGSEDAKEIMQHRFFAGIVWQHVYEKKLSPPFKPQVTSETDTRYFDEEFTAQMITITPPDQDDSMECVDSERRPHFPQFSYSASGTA

Row | IC50 [nM] | Structure (SMILES)
1 | 56 | CC(=O)Nc1ccc(-c2ccc3nc(-c4cccnc4N)n(-c4ccc(CNC(=O)c5cccc(F)c5)cc4)c3n2)cc1 [Example 291, N-(4-(5-(4-acetamidophenyl)-2-(2-amino-pyridin-3-yl)-3H-imidazo[4,5-b]pyridin-3-yl)benzyl)-3-fluorobenzamide]
2 | 130 | Nc1ncccc1-c1nc2cc(Br)cnc2n1-c1ccc(CC(=O)Nc2cccc(F)c2)cc1 [Example 299, 2-(4-(2-(2-aminopyridin-3-yl)-6-bromo-3H-imidazo[4,5-b]pyridin-3-yl)phenyl)-N-(3-fluorophenyl)acetamide]
3 | 23 | Nc1ncccc1-c1nc2ccc(-c3cc[nH]c3)nc2n1-c1ccc(CNC(=O)c2cccc(F)c2)cc1 [Example 309, N-(4-(2-(2-aminopyridin-3-yl)-5-(1H-pyrrol-3-yl)-3H-imidazo[4,5-b]pyridin-3-yl)benzyl)-3-fluorobenzamide]
4 | 79 | Cc1noc(C)c1-c1ccc2nc(-c3cccnc3N)n(-c3ccc(CNC(=O)c4cccc(F)c4)cc3)c2n1 [Example 310, N-(4-(2-(2-aminopyridin-3-yl)-5-(3,5-dimethylisoxazol-4-yl)-3H-imidazo[4,5-b]pyridin-3-yl)benzyl)-3-fluorobenzamide]
5 | 34 | Nc1ncccc1-c1nc2ccc(-c3ccc(C(=O)O)o3)nc2n1-c1ccc(CNC(=O)c2cccc(F)c2)cc1 [Example 312, 5-(2-(2-aminopyridin-3-yl)-3-(4-((3-fluoro-benzamido)methyl)phenyl)-3H-imidazo[4,5-b]pyridin-5-yl)furan-2-carboxylic acid]
6 | 120 | CS(=O)(=O)Nc1ccccc1-c1ccc2nc(-c3cccnc3N)n(-c3ccc(CNC(=O)c4cccc(F)c4)cc3)c2n1 [Example 313, N-(4-(2-(2-aminopyridin-3-yl)-5-(2-(methylsulfonamido)phenyl)-3H-imidazo[4,5-b]pyridin-3-yl)benzyl)-3-fluorobenzamide]
7 | 36 | C[S+]([O-])c1ccc(-c2ccc3nc(-c4cccnc4N)n(-c4ccc(CNC(=O)c5cccc(F)c5)cc4)c3n2)cc1 (stereo not drawn) [Example 315, N-(4-(2-(2-aminopyridin-3-yl)-5-(4-(methylsulfinyl)phenyl)-3H-imidazo[4,5-b]pyridin-3-yl)benzyl)-3-fluorobenzamide]
8 | 35 | Nc1ncccc1-c1nc2ccc(-c3ccco3)nc2n1-c1ccc(CNC(=O)c2cccc(F)c2)cc1 [Example 316, N-(4-(2-(2-aminopyridin-3-yl)-5-(furan-2-yl)-3H-imidazo[4,5-b]pyridin-3-yl)benzyl)-3-fluorobenzamide]

Further lines, the compound ahead of its results:

Row | Structure (SMILES) | IC50 [nM]
9 | Cc1cnc2c(c1)nc(-c1cccnc1N)n2-c1ccc(CNC(=O)c2cc(F)ccc2F)cc1 [Example 283, N-(4-(2-(2-aminopyridin-3-yl)-6-methyl-3H-imidazo[4,5-b]pyridin-3-yl)benzyl)-2,5-difluorobenzamide] | 220
10 | Cc1cnc2c(c1)nc(-c1cccnc1N)n2-c1ccc(CNC(=O)c2ccccn2)cc1 [Example 284, N-(4-(2-(2-aminopyridin-3-yl)-6-methyl-3H-imidazo[4,5-b]pyridin-3-yl)benzyl)picolinamide] | 770
11 | Cc1cnc2c(c1)nc(-c1cccnc1N)n2-c1ccc(CNC(=O)c2cnccn2)cc1 [Example 285, N-(4-(2-(2-aminopyridin-3-yl)-6-methyl-3H-imidazo[4,5-b]pyridin-3-yl)benzyl)pyrazine-2-carboxamide] | 850
12 | Cc1cnc2c(c1)nc(-c1cccnc1N)n2-c1ccc(CNC(=O)Cc2nnn[nH]2)cc1 [Example 286, N-(4-(2-(2-aminopyridin-3-yl)-6-methyl-3H-imidazo[4,5-b]pyridin-3-yl)benzyl)-2-(1H-tetrazol-5-yl)acetamide] | 740
13 | CC(C)(C)OC(=O)NCc1ccc(-n2c(-c3cccnc3N)nc3ccc(-c4ccc(CO)cc4)nc32)cc1 [Example 288, tert-butyl 4-(2-(2-aminopyridin-3-yl)-5-(4-(hydroxymethyl)phenyl)-3H-imidazo[4,5-b]pyridin-3-yl)benzylcarbamate] | 450
14 | CC(=O)Nc1cccc(-c2ccc3nc(-c4cccnc4N)n(-c4ccc(CNC(=O)c5ccc(C)c(F)c5)cc4)c3n2)c1 [Example 293, N-(4-(5-(3-acetamidophenyl)-2-(2-aminopyridin-3-yl)-3H-imidazo[4,5-b]pyridin-3-yl)benzyl)-3-fluoro-4-methylbenzamide] | 9.5
15 | Cc1ccc2cc(NC(=O)Cc3ccc(-n4c(-c5cccnc5N)nc5cc(Br)cnc54)cc3)ccc2n1 [Example 298, 2-(4-(2-(2-aminopyridin-3-yl)-6-bromo-3H-imidazo[4,5-b]pyridin-3-yl)phenyl)-N-(2-methylquinolin-6-yl)acetamide] | 14
16 | Cc1ccc2nc(-c3cccnc3N)n(-c3ccc(CC(=O)Nc4cccc(F)c4)cc3)c2n1 [Example 300, 2-(4-(2-(2-aminopyridin-3-yl)-5-methyl-3H-imidazo[4,5-b]pyridin-3-yl)phenyl)-N-(3-fluorophenyl)acetamide] | 170
17 | Cc1ccc2nc(-c3cccnc3N)n(-c3ccc(CC(=O)Nc4ccccc4)cc3)c2n1 [Example 301, 2-(4-(2-(2-aminopyridin-3-yl)-5-methyl-3H-imidazo[4,5-b]pyridin-3-yl)phenyl)-N-phenylacetamide] | 66
18 | Cc1ccc2cc(NC(=O)Cc3ccc(-n4c(-c5cccnc5N)nc5ccc(C)nc54)cc3)ccc2n1 [Example 302, 2-(4-(2-(2-aminopyridin-3-yl)-5-methyl-3H-imidazo[4,5-b]pyridin-3-yl)phenyl)-N-(2-methylquinolin-6-yl)acetamide] | 78
19 | Nc1ncccc1-c1nc2cc(Br)cnc2n1-c1ccc(NC(=O)c2ccccc2)cc1 [Example 304, N-(4-(2-(2-aminopyridin-3-yl)-6-bromo-3H-imidazo[4,5-b]pyridin-3-yl)phenyl)benzamide] | 20
20 | Nc1ncc(-c2ccc3nc(-c4cccnc4N)n(-c4ccc(CNC(=O)c5cccc(F)c5)cc4)c3n2)cn1 [Example 306, N-(4-(2-(2-aminopyridin-3-yl)-5-(2-aminopyrimidin-5-yl)-3H-imidazo[4,5-b]pyridin-3-yl)benzyl)-3-fluorobenzamide] | 12
21 | Nc1ncccc1-c1nc2ccc(-c3c[nH]c(=O)[nH]c3=O)nc2n1-c1ccc(CNC(=O)c2cccc(F)c2)cc1 [Example 311, N-(4-(2-(2-aminopyridin-3-yl)-5-(2,4-dioxo-1,2,3,4-tetrahydropyrimidin-5-yl)-3H-imidazo[4,5-b]pyridin-3-yl)benzyl)-3-fluorobenzamide] | 29
22 | NCc1ccc(-c2ccc3nc(-c4cccnc4N)n(-c4ccc(CNC(=O)c5cccc(F)c5)cc4)c3n2)cc1 [Example 314, N-(4-(5-(4-(aminomethyl)phenyl)-2-(2-aminopyridin-3-yl)-3H-imidazo[4,5-b]pyridin-3-yl)benzyl)-3-fluorobenzamide] | 25
23 | Nc1ncccc1-c1nc2ccc(-c3ccsc3)nc2n1-c1ccc(CNC(=O)c2cccc(F)c2)cc1 [Example 317, N-(4-(2-(2-aminopyridin-3-yl)-5-(thiophen-3-yl)-3H-imidazo[4,5-b]pyridin-3-yl)benzyl)-3-fluorobenzamide] | 24
24 | Cc1ccc2cc(NC(=O)Cc3ccc(-n4c(-c5cccnc5N)nc5cc(-c6cccnc6)cnc54)cc3)ccc2n1 [Example 318, 2-(4-(2-(2-aminopyridin-3-yl)-6-(pyridin-3-yl)-3H-imidazo[4,5-b]pyridin-3-yl)phenyl)-N-(2-methylquinolin-6-yl)acetamide] | 19
